From US20130237415A1 (priority 2010, published 2013)
Where two headings read alike, the source gives them in different places.

Assays:
[1] = system: Fusarium verticillioides; conditions: for F. verticilliodes disease severity (in words): safeners alone at 100 gai/ha
Description: Corn seeds of the Garst hybrid 86C73-3000GT were planted and grown in the greenhouse at 22° C., 12 hours of light/12 hours of dark using an experiment based on a randomized complete block (RCB) design with ten replicates.
Safeners tested were: N-(2-methoxybenzoyl)-4-[(methylaminocarbonyl)amino]benzenesulfonamide, Cyprosulfamide, and Isoxadifen, alone and in combination with Prothioconazole fungicide, were applied at the beginning of tasselling stage (GS 51-55) at rates of 100 gai/ha. Prothioconazole was tested alone at rates of 50, 100, and 200 gai/ha. Prothioconazole was tested in combination with safeners at 100 gai/ha. An additional treatment of Prothioconazole at 50 gai/ha+Isoxadifen at 100 gai/ha was included. All treatments were applied a water volume of 220 L/ha using a track sprayer. The adjuvant X-77 was included in each treatment of maize at a rate of 0.125% v/v. Untreated non-innoculated and inoculated control treatments were included within the treatment list.
Maize was inoculated with Fusarium verticillioides at flowering/silking stage (GS 61-65) by spraying conidia of F. verticillioides on the emerged silk at 1.0×10^6 conidia/mL. Treated plants where then incubated in the dark at 22° C. for 3 days in the dark at 100% R.H., followed by 6 days at 65% R.H. at 12 hour light/dark intervals at 22° C.
Maize was harvested at maturity, the weight of corn seeds per ear was recorded. Fusarium disease severity per maize ear was determined by plating a ten seeds per ear on Fusarium selective agar media. Seeds were surface sterilized with 5% sodium hypochloride for 1 minute followed by washing with sterile water for 1 minute, prior to plating on selective media. After plating, seeds were incubated in the dark at 15° C. for 10 days.

[2] = system: Fusarium graminearum; type: in vivo; conditions: for % FHB Control* / FHB Area / FHB Area (% of Control) / Observed % FHB Efficacy: spring wheat; for % FHB Control*: Group A, GS 59, 100 gai/ha, relative to inoculated untreated check; for FHB Area / FHB Area (% of Control) / Observed % FHB Efficacy: Group B
[3] = system: Fusarium graminearum; type: in vivo; conditions: for % DON Reduction: spring wheat, Group A, GS 59, 100 gai/ha, relative to inoculated untreated check; for DON Levels (% of Control) / DON Levels (ppm) / Observed % DON Efficacy: harvested spring wheat grain, Group B

Row | Molecule | F. verticilliodes disease severity (in words) ([1]; maize) | % FHB Control* [2] [%] | % DON Reduction [3] [%] | FHB Area ([2]; GS 65/69, 50 gai/ha) [%] | FHB Area (% of Control) ([2]; GS 65/69, 50 gai/ha) [%] | Observed % FHB Efficacy ([2]; GS 65/69, 50 gai/ha) [%] | FHB Area ([2]; GS 65/69, 100 gai/ha) [%] | FHB Area (% of Control) ([2]; GS 65/69, 100 gai/ha) [%] | Observed % FHB Efficacy ([2]; GS 65/69, 100 gai/ha) [%] | FHB Area ([2]; GS 65/69, 200 gai/ha) [%] | FHB Area (% of Control) ([2]; GS 65/69, 200 gai/ha) [%] | Observed % FHB Efficacy ([2]; GS 65/69, 200 gai/ha) [%] | DON Levels (% of Control) ([3]; GS 65/69, 50 gai/ha) [%] | DON Levels (ppm) ([3]; GS 65/69, 50 gai/ha) | Observed % DON Efficacy ([3]; GS 65/69, 50 gai/ha) [%] | DON Levels (% of Control) ([3]; GS 65/69, 100 gai/ha) [%] | DON Levels (ppm) ([3]; GS 65/69, 100 gai/ha) | Observed % DON Efficacy ([3]; GS 65/69, 100 gai/ha) [%] | DON Levels (% of Control) ([3]; GS 65/69, 200 gai/ha) [%] | DON Levels (ppm) ([3]; GS 65/69, 200 gai/ha) | further results
1 | CNC(=O)Nc1ccc(S(=O)(=O)NC(=O)c2ccccc2OC)cc1 | greatly reduced | 7 | 0 |  |  |  |  |  |  |  |  |  |  |  |  |  |  |  |  |  | 
2 | CON(C(=O)c1cn(C)nc1C(F)F)C(C)Cc1c(Cl)cc(Cl)cc1Cl (centres unmarked) [3-difluoromethyl-1-methyl-1H-pyrazole-4-carboxylic acid methoxy-[1-methyl-2-(2,4,6-trichlorophenyl)-ethyl]-amide] |  |  |  | 8.3 | 13.7 | 86.3 | 7.5 | 12.4 | 87.6 | 7 | 11.5 | 88.5 | 25.9 | 7.084 | 74.1 | 16.1 | 4.388 | 83.9 | 11.7 | 3.187 | Observed % DON Efficacy ([3]; GS 65/69, 200 gai/ha): 88.3%
3 | CCCCCC(C)OC(=O)COc1ccc(Cl)c2cccnc12 (centres unmarked) [Cloqunitocet, 1-methylhexyl[(5-chloro-8-quinolinyl)oxy]acetate] |  | 1 | 9 |  |  |  |  |  |  |  |  |  |  |  |  |  |  |  |  |  | 
4 | O=C(O)C1=NOC(c2ccccc2)(c2ccccc2)C1 [Isoxadifen, 4,5-dihydro-5,5-diphenyl-3-isoxazolecarboxylic acid] | greatly reduced | 0 | 17 |  |  |  | 81.3 | 133.9 | 0.0 |  |  |  |  |  |  | 106.6 | 29.098 | 0.0 |  |  | effectiveness of treatment for maize (in words) ([1]; maize): Particularly effective; effectiveness of treatment for wheat (in words) ([2]; wheat): Particularly effective
5 | Prothioconazole |  |  |  | 28.1 | 46.3 | 53.7 | 57.5 | 94.7 | 5.3 | 7.3 | 12.0 | 88.0 | 37.6 | 10.274 | 62.4 | 38.3 | 10.456 | 61.7 | 15.8 | 4.322 | Fusarium verticilliodes disease severity per maize ear (in words) ([1]; treated versus untreated control maize plants): reduced disease severity; Observed % DON Efficacy ([3]; GS 65/69, 200 gai/ha): 84.2%
